Assay results reported in patent publication US12441757B2, “Platform for screening NAD+ binding proteins in a cellular context” (OREGON HEALTH & SCIENCE UNIVERSITY, priority 2020, dated 2025).
“Also recorded” adds a separate entry of the source.

Columns and labels:
PARP-1 [1] = target: T1, PARP-1 (Homo sapiens, UniProt P09874); experiment: Competition labeling of PARP-1 by 2-ad-BAD; assay type: binding; settings: for block of 2-ad-BAD labeling of PARP-1 by nucleotides: 150 μM nucleotide, 0.3 μM 2-ad-BAD; for dose-dependent block of 2-ad-BAD labeling of PARP-1: competitor dose series
T1 construct: Full length His6-PARP-1 and His6-SUMO-PARP-10 proteins we expressed and purified; His6 (N); made in house
T1 sequence (P09874 whole entry): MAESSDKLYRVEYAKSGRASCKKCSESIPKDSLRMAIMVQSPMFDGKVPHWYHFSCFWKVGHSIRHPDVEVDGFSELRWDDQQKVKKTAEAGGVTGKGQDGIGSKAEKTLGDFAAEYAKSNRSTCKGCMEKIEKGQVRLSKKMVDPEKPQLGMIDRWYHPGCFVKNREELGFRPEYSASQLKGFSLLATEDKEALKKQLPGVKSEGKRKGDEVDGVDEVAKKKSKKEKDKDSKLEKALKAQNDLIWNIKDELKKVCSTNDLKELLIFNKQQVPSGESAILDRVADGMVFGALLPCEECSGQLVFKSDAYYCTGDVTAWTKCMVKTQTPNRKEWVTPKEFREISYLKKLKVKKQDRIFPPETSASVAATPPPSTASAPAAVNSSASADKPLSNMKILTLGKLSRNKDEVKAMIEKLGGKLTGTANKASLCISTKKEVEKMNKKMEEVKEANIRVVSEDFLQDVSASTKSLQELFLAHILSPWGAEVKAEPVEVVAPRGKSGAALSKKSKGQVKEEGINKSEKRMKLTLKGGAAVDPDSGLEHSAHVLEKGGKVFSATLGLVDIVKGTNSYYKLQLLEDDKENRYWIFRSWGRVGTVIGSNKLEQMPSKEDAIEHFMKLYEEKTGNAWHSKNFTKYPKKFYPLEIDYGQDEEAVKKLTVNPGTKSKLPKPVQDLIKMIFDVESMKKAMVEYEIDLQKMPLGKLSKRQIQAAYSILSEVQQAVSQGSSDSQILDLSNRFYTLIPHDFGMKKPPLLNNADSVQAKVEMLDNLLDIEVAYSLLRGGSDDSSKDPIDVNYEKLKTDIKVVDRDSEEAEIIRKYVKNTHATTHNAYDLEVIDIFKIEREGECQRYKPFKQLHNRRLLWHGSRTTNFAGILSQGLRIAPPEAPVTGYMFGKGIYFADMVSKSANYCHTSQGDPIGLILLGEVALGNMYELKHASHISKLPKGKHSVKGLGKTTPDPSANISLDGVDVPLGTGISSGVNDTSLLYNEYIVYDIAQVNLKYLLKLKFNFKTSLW
From the text: (§1) FIG. 8. Densitometry analyses of FIG. 3A panels (A,B) comparing the inhibitory effect of nucleotides and (B) panels (C,D) comparing inhibitory effect of PARP inhibitors on PARP-1 and PARP-10 labelling by 2-ad-BAD. TAMRA in-gel fluorescence was normalized to Coomassie staining, except for PARP-1 NAD^+ treated samples where relative to control TAMRA signal is reported due to auto-PARylation induced molecular weight shift and therefore not detectable Coomassie signal at PARP-1 molecular weight of ˜110 kDa. Data are mean±SEM of 3 independent experiments.
(§2) Treatments. Recombinant PARP-1 (250 nM), PARP-10 (250 nM) or AK1 (500 nM; Novus Biologicals) were diluted in 100 mM NaCl, 50 mM HEPES [pH 7.4], 4 mM MgCl2, 0.2 mM TCEP. PARP-1 reactions also contained 10 μg/mL of activated calf thymus DNA (Sigma-Aldrich D4522), unless otherwise noted. In experiments reported in FIG. 2, the samples were treated with 0.1 μM 2-ad-BAD or ad-olaparib for 10 min. In competition experiments reported in FIG. 3 and Figure S3, samples were first treated with 150 μM of indicated nucleotides for 10 minute and then with 0.3 μM 2-ad-BAD for additional 10 min. All treatments occurred at RT. Samples were then kept in the dark or irradiated for 5 min in the RPR-100 Photochemical Reactor (Rayonet) equipped with 350 nm lamps at 4° C.
(§3) Click Chemistry. 25 μL of each sample was mixed with 5 μL of fatty acid free BSA and SDS to give a final Click reaction concentration of 1 mg/mL and 1%, respectively. Click reactions were started by adding 15 μL of PBS based 3× click reaction mix (final 1× concentrations shown): 100 μM Tris[(1-benzyl-1H-1,2,3triazol-4-yl)methyl]amine (TBTA, Click Chemistry Tools), 1 mM CuSO4, 40 μM tetramethylrhodamine (TAMRA)-azide (Click Chemistry Tools), 1 mM Tris(2-carboxyethyl)phosphine hydrochloride (TCEP, Thermo Fisher) and 5% tert-Butyl alcohol to each sample, and let to proceed for 1 h at RT while gently shaking. Reactions were stopped by adding 4× Laemmli sample buffer and boiling at 95° C. for 5 min.
(§4) In gel fluorescence and staining. Samples were loaded to 10 or 12% SDS-polyacrylamide gels and run until the dye front left the gel. In-gel fluorescence was detected with ChemiDoc XRS+ (Biorad) using Rhodamine filter and then the gels were stained with Coomassie blue or Silver using standard protocols.

PARP-10 = target: T2, PARP-10 (Homo sapiens, UniProt Q53GL7); experiment: Competition labeling of PARP-10 by 2-ad-BAD; assay type: binding; settings: for block of 2-ad-BAD labeling of PARP-10 by nucleotides: 150 μM nucleotide, 0.3 μM 2-ad-BAD; for dose-dependent block of 2-ad-BAD labeling of PARP-10: competitor dose series
T2 construct: Full length His6-PARP-1 and His6-SUMO-PARP-10 proteins we expressed and purified; His6 (N); SUMO (N); made in house
T2 sequence (Q53GL7 1-1025): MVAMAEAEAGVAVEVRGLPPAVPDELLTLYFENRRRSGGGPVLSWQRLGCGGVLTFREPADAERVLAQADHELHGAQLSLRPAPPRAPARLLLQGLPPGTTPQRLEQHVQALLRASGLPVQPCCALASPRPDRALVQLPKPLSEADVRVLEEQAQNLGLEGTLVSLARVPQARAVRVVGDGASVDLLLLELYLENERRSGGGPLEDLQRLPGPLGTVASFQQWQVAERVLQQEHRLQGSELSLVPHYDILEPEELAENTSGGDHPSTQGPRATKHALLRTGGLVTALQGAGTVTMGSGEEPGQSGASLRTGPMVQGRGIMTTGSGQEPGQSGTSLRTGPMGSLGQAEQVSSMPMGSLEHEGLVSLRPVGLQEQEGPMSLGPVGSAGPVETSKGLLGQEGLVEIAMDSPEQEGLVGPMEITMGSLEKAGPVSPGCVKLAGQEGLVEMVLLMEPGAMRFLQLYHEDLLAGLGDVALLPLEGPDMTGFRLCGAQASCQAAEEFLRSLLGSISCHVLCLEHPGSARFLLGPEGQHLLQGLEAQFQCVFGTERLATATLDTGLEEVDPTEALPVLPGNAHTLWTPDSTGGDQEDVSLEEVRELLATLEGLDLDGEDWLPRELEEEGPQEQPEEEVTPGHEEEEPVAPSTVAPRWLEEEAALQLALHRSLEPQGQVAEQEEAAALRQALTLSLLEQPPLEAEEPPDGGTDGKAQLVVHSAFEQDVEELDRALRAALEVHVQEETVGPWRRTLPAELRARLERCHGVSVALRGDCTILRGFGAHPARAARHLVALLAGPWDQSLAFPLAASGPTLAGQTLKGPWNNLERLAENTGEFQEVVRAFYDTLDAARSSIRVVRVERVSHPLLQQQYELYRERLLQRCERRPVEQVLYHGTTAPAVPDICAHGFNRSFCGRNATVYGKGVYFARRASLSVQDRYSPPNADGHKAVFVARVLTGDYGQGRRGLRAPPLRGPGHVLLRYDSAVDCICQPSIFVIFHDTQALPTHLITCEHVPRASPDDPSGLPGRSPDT
From the text: as §1, §2, §3, §4

Adenylate kinase 1 (AK1) = target: T3, Adenylate kinase 1 (AK1) (Homo sapiens, UniProt P00568); experiment: Labeling of recombinant AK1 by 2-ad-BAD and nucleotide competition; assay type: binding; settings: 150 μM competitor, 0.3 μM 2-ad-BAD
T3 construct: purchased Novus Biologicals NBP1-50855
T3 sequence (P00568 1-194): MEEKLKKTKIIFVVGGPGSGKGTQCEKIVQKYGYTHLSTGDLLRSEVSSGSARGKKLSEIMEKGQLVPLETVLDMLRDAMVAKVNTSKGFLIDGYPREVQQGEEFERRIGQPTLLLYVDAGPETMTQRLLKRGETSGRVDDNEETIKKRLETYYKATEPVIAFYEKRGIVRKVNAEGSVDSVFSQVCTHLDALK
Experimental: (§5) FIG. 10. Validation of Adenylate kinase 1 (AK1) as a putative NAD^+/NADH binding protein. […] Recombinant AK1 (500 nM) in 100 mM NaCl, 50 mM HEPES [pH 7.4], 4 mM MgCl2, 0.2 mM TCEP was incubated with 150 μM of indicated competitor molecule for 10 min, followed by 10 min treatment with 0.3 μM 2-ad-BAD. Samples were then subjected to UV light for 5 min, conjugated to TAMRA using Click chemistry, separated by SDS-PAGE and in-gel fluorescence was recorded. […] (FIG. 10B) A differential scanning fluorimetry assay is supportive of NADH as novel AK1 ligand. Recombinant AK1 (0.1 mg/mL) in 100 mM NaCl, 50 mM HEPES, pH 7.4, 4 mM MgCl2, 7.5× SYPRO Orange was tested for thermal stability in the absence or presence of indicated nucleotides at 1 mM. Ordinate reports on the difference of melt peak temperature prompted by indicated treatments. Data are mean±SEM of 3 independent experiments.
as §2, §3, §4

AK1 [2] = target: T4, AK1 (Homo sapiens, UniProt P00568); experiment: Differential scanning fluorimetry (DSF) of AK1; assay type: binding; settings: nucleotide 1 mM, AK1 0.1 mg/mL
T4 construct: purchased Novus Biologicals NBP1-50855
T4 sequence (P00568 1-194): T3 sequence (P00568 1-194)
Experimental: as §5
Differential scanning fluorimetry was used to detect the AK1-ligand interaction. […] AK1 thermal stability upon treatment with ddH2O, ATP, ADP, NAD^+or NADH, 1 mM each, was measured on Biorad RT-PCR thermocycler using Cal Orange 560 filter. […] The melting temperature (Tm) for each sample was determined by calculating first derivative of the fluorescence (d(RFU)/dT) and shift in thermal stability (ΔTm) was calculated by subtracting vehicle—treated sample Tm from ligand-treated sample Tm.

squid AK = settings: cited from earlier work
AK1 [3] = settings: cited from earlier work
PARP-1 [4] = target: T1, PARP-1; experiment: In vitro photocrosslinking and click chemistry labeling of PARP-1 (in-gel fluorescence); assay type: binding; settings: 0.1 μM probe, UV 350 nm 5 min, presence or absence of damaged DNA
Experimental: as §2
Click Chemistry. 25 μL of each sample was mixed with 5 μL of fatty acid free BSA and SDS to give a final Click reaction concentration of 1 mg/mL and 1%, respectively. […]
In gel fluorescence and staining. […] In-gel fluorescence was detected with ChemiDoc XRS+ (Biorad) using Rhodamine filter and then the gels were stained with Coomassie blue or Silver using standard protocols.

Row | Structure (SMILES) | block of 2-ad-BAD labeling of PARP-1 by nucleotides (PARP-1 [1]) | block of 2-ad-BAD labeling of PARP-10 by nucleotides (PARP-10) | competition of 2-ad-BAD labeling of recombinant AK1 (Adenylate kinase 1 (AK1)) | other results
1 | Nc1ncnc2c1ncn2[C@@H]1O[C@H](COP(=O)(O)OP(=O)(O)OC[C@H]2OC(O)[C@H](O)[C@@H]2O)[C@@H](O)[C@H]1O (stereo partly shown) [ADPr, ADP-ribose] | did not block | did not block | to a lesser extent | –
2 | Nc1ncnc2c1ncn2[C@@H]1O[C@H](COP(=O)(O)O)[C@@H](O)[C@H]1O [AMP] | – | – | effectively competed | –
3 | Nc1ncnc2c1ncn2[C@@H]1O[C@H](COP(=O)(O)OP(=O)(O)OP(=O)(O)O)[C@@H](O)[C@H]1O [ATP, adenosine triphosphate] | did not block | did not block | effectively competed | –
4 | CC#Cc1ccc2c(=O)[nH]c(CSc3ccc(C(=O)O)cc3)nc2c1C [ITK6] | – | – | – | dose-dependent block of 2-ad-BAD labeling of PARP-1 (PARP-1 [1]): did not block the labeling of PARP-1; dose-dependent block of 2-ad-BAD labeling of PARP-10 (PARP-10): blocked the labeling of PARP-10
5 | NC(=O)c1cc(F)cc2c1C(=O)N(C1CCN(C3CCC(F)(F)CC3)CC1)C2 [NMS-P118, 2-[1-(4,4-Difluorocyclohexyl)Piperidin-4-Yl]-6-Fluoro-3-Oxo-2,3-Dihydro-1H-Isoindole-4-Carboxamide] | – | – | – | dose-dependent block of 2-ad-BAD labeling of PARP-1 (PARP-1 [1]): blocked the labeling of PARP-1; dose-dependent block of 2-ad-BAD labeling of PARP-10 (PARP-10): did not block the labeling of PARP-10
6 | C#CCCC1(CCOC(=O)N2CCN(C(=O)c3cc(Cc4n[nH]c(=O)c5ccccc45)ccc3F)CC2)N=N1 [ad-olaparib, 2-(3-(but-3-yn-1-yl)-3H-diazirin-3-yl)ethyl 4-(2-fluoro-5-((4-oxo-3,4-dihydrophthalazin-1-yl)methyl)benzoyl) piperazine-1-carboxylate] | – | – | – | UV-dependent labeling of PARP-1, dependence on damaged DNA (PARP-1 [4]): labels PARP-1 independent of PARP-1 binding to damaged DNA

Continued, in another order:

Row | block of 2-ad-BAD labeling of PARP-1 by nucleotides (PARP-1 [1]) | block of 2-ad-BAD labeling of PARP-10 by nucleotides (PARP-10) | competition of 2-ad-BAD labeling of recombinant AK1 (Adenylate kinase 1 (AK1)) | Structure (SMILES) | other results
7 | did not block | did not block | – | Nc1ncnc2c1ncn2[C@@H]1O[C@H](COP(=O)(O)OP(=O)(O)O)[C@@H](O)[C@H]1O [ADP] | –
8 | reduced | reduced | effectively competed | NC(=O)C1=CN([C@@H]2O[C@H](COP(=O)(O)OP(=O)(O)OC[C@H]3O[C@@H](n4cnc5c(N)ncnc54)[C@H](O)[C@@H]3O)[C@@H](O)[C@H]2O)C=CC1 [NADH] | shift in AK1 thermal stabilization (ΔTm) compared to vehicle control (AK1 [2]): caused a shift in AK1 thermal stabilization; also recorded: showed a thermal shift similar to ATP and ADP; mode of inhibition of squid AK (squid AK): non-competitive inhibitor; inhibition of AK1 activity (AK1 [3]): competitively inhibited
9 | reduced | reduced | to a lesser extent | NC(=O)c1ccc[n+]([C@@H]2O[C@H](COP(=O)([O-])OP(=O)(O)OC[C@H]3O[C@@H](n4cnc5c(N)ncnc54)[C@H](O)[C@@H]3O)[C@@H](O)[C@H]2O)c1 [NAD^+, Nicotinamide adenine dinucleotide] | shift in AK1 thermal stabilization (ΔTm) compared to vehicle control (AK1 [2]): caused a shift in AK1 thermal stabilization; inhibition of AK1 activity (AK1 [3]): competitively inhibited
